{"source": "paper PMC2749862", "about": "“Glucocorticoids with different chemical structures but similar glucocorticoid receptor potency regulate subsets of common and unique genes in human trabecular meshwork cells” (BMC Medical Genomics, 2009)", "key": {"[1]": {"target": "T1, glucocorticoid receptor (Homo sapiens, UniProt P04150)", "T1 sequence (P04150 524-777 limits assumed)": "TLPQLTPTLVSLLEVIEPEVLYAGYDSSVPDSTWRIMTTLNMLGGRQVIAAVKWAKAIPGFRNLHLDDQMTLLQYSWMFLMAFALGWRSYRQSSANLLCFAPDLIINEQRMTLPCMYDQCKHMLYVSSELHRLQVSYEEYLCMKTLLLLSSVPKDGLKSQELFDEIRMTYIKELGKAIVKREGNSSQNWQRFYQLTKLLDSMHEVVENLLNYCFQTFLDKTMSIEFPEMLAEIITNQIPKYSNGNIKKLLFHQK", "experiment": "GR radiolabeled competitive binding assay (IM-9 cell cytosol, [3H]dexamethasone; Cerep)", "conditions": "IM-9 cell cytosol competition curves", "description": "GR binding affinity assay was performed at Cerep Inc. (Celle l'Evescault, France), according to an established method. […] Nonspecific binding is determined in the presence of 10 μM triamcinolone. Following incubation, the samples are filtered rapidly under vacuum through glass fiber filters (GF/B, Packard) presoaked with 0.3% Poly(ethyleneimine) and rinsed several times with ice-cold 50 mM Tris-HCl using a 96-sample cell harvester (Unifilter, Packard). The filters are dried and counted for radioactivity in a scintillation counter (Topcount, Packard) using a scintillation cocktail (Microscint 0, Packard). The results are expressed as percent inhibition of the control radioligand specific binding. The IC50 values (concentration causing half-maximal inhibition of control specific binding) and Hill coefficients (nH) were determined by non-linear regression analysis of the competition curves generated with mean replicate values using Hill equation curve fitting (Y = D + [(A - D)/(1 + (C/C50)^nH)], where Y = specific binding, D = minimum specific binding, A = maximum specific binding, C = compound concentration, C50 = IC50, and nH = slope factor). […] The inhibition constants (Ki) were calculated using the Cheng Prusoff equation (Ki = IC50/(1+(L/KD)), where L = concentration of radioligand in the assay, and KD = affinity of the radioligand for the receptor). […] The GR binding assay was performed in duplicate."}, "[2]": {"test_system": "TM 86 cells", "experiment": "Microarray gene expression profiling in TM 86 cells (with IPA and GoMiner analysis)", "assay_type": "cell-based, human", "conditions": "1 μM, 24 hr", "from_the_text": "(§1) Cells were maintained in low glucose Dulbecco's Modified Eagle Medium (DMEM, Invitrogen, Carlsbad, CA) supplemented with 10% (vol/vol) FBS (American Type Culture Collection, Manassas, VA), 1% (vol/vol) penicillin and streptomycin (Invitrogen). Cells from the human HeLa cervical adenocarcinoma cell line (American Type Culture Collection) were maintained in α-MEM medium supplemented with 10% (v/v) FBS, 1% (v/v) penicillin and streptomycin. All cells were used within passages 3 to 6. […] Cells were maintained for one week with medium renewal every other day. The day before the experiment, confluent TM were washed once with phosphate-buffered saline (PBS) and then the cells were maintained in 1% FBS-containing medium with antibiotics. […] Control cells were treated with 0.1%(v/v) dimethylsulfoxide (DMSO). At the end of GC treatment, supernatant was discarded and the cell monolayer was kept frozen at -80°C for subsequent total RNA extraction and gene expression profiling. […] Briefly, RNA was isolated from flash frozen cell culture plates using RNeasy Mini columns (Qiagen, Valencia, CA) according to the manufacturer's protocol. There were three biological replicates per treatment condition. The quantity and purity of the extracted RNA was evaluated using a NanoDrop ND-1000 spectrophotometer (Nanodrop Technologies, Wilmington, DE, USA) and its integrity measured using an Agilent Bioanalyzer. […] The amount and quality of the fluorescently labeled cRNA was assessed using a NanoDrop ND-1000 spectrophotometer and an Agilent Bioanalyzer. An equal amount of Cy3-labeled cRNA (1.6 μg) was hybridized to the Agilent Human Whole Genome Oligo Microarray (Agilent Technologies) for 17 hours, prior to washing and scanning. Data were extracted from scanned images using Agilent's Feature Extraction Software (Agilent Technologies) using default settings. […] The full complement of microarray data has been deposited in the NIH/NLM Gene Expression Omnibus (GEO accession # GSE16643). […] The lists of differentially expressed genes were also applied to global functional, network and canonical pathway analyses using Ingenuity Pathway Analysis (Ingenuity® Systems, Redwood City, CA)."}, "[3]": {"test_system": "TM 93 cells", "experiment": "Microarray gene expression profiling in TM 93 cells (with IPA and GoMiner analysis)", "assay_type": "cell-based, human", "conditions": "1 μM, 24 hr", "from_the_text": "as §1"}}}
{"smiles": "C[C@@H]1C[C@H]2[C@@H]3CCC4=CC(=O)C=C[C@]4(C)[C@@]3(F)[C@@H](O)C[C@]2(C)[C@@]1(O)C(=O)CO", "note": "[DEX, dexamethasone]", "values": [{"measurement": "nH (Hill coefficient)", "setting": "[1]", "value": "1.06 ± 0.18"}, {"measurement": "function of significantly regulated transcripts (Ingenuity Pathway Analysis)", "setting": "[2]", "value": "RNA post-transcriptional modifications"}, {"measurement": "number of genes uniquely regulated by each GC", "setting": "[2]", "value": 1761}, {"measurement": "significantly regulated biological process (GoMiner gene ontology)", "setting": "[2]", "value": "cellular component organization and biogenesis"}, {"measurement": "significantly regulated network (Ingenuity Pathway Analysis)", "setting": "[2]", "value": "a network centered around the RNA binding protein S1 or RNPS1"}, {"measurement": "function of significantly regulated genes (Ingenuity Pathway Analysis)", "setting": "[3]", "value": "histone methylation"}, {"measurement": "number of genes uniquely regulated by each GC", "setting": "[3]", "value": 745}, {"measurement": "significantly regulated biological process (GoMiner gene ontology)", "setting": "[3]", "value": "membrane lipid metabolic process"}, {"measurement": "significantly regulated network (Ingenuity Pathway Analysis)", "setting": "[3]", "value": "a network centered around a histone methyltransferase known as suppressor of zeste 12 homolog or SUZ12"}]}
